According to US11390592B2, “Method for producing the crystalline form of modification a of calcobutrol” (BAYER PHARMA AKTIENGESELLSCHAFT, priority 2016, dated 2022):

Columns and labels:
Assay type in all cases: physicochemical
[1] = Solubility in water of the polymorphic modifications
[2] = Hygroscopic properties: exposure to ambient air, water content by Karl-Fischer titration; settings: ca. 20° C., ca. 60% rel. humidity
Procedure: The hygroscopic properties of three different samples of Calcobutrol were determined, one sample was prepared by the method described in Inorganic Chemistry 1997, 36, 6086-6093 (Example 5), one sample was prepared by the method described in WO2011/054827A1 (Example 6), and one sample was prepared by the method according to the present invention (Example 2).
2 g of each sample were exposed to ambient air (ca. 20° C., ca. 60% rel. humidity). The water content was measured by means of Karl-Fischer-Titration immediately after initial exposure (t=0), three hours (t=3 h), seven hours (t=7 h), and thirty one hours (t=31 h) after initial exposure.

[3] = Storage stability and hygroscopicity of the polymorphic forms; settings: solid

SMILES | Solubility in water [1] [mg/mL] | solubility in water (appearance) [1] | weight-% water t = 0 ([2]; 2 g exposed to ambient air, immediately after initial exposure) [%] | weight-% water t = 7 h ([2]; ambient air, seven hours after initial exposure) [%] | weight-% water t = 31 h ([2]; ambient air, thirty one hours after initial exposure) [%] | weight-% water t = 3 h ([2]; ambient air, three hours after initial exposure) [%] | storage stability [3] | storage stability ([3]; listed as calcobutrol of modification A) | hygroscopicity [3]
O=C([O-])CN1CCN(CC(=O)[O-])CCN(C(CO)C(O)CO)CCN(CC(=O)O)CC1.[Ca+2] (stereo not drawn) [Modification A, calcium complex of dihydroxy-hydroxy-methylpropyl-tetraazacyclododecane-triacetic acid (calcobutrol)] | >500 | colourlessly soluble in water | 3.0 | 4.3 | 4.3 | 4.5 | good storage stability | storage-stable | 
O=C([O-])CN1CCN(CC(=O)[O-])CCN(C(CO)C(O)CO)CCN(CC(=O)O)CC1.[Ca+2] (stereo not drawn) [Modification B, calcium complex of dihydroxy-hydroxy-methylpropyl-tetraazacyclododecane-triacetic acid (calcobutrol)] |  |  |  |  |  |  |  |  | to a large extent tend to be hygroscopic
